Source: patent US20240343761A1, “APELINERGIC MACROCYCLES AND USES THEREOF” (priority 2021, published 2024)
Read-outs that look alike come from different tables or passages of the source. Numbered stars: 1 amine (or outer) side, 2 acyl side, 3 side chain; on linkers, the order of the positions; unused ones are H or OH. Bridge positions count the residues as written; N and C are the ends. Square brackets hold non-standard residues; d marks the D form. Ends that are not written are not given here. * marks the point of attachment. cypTyr(OBn) = 3-cyclopentyl-O-benzyl-L-tyrosine, O=C([C@H](Cc1ccc(OCc2ccccc2)c(C2CCCC2)c1)N[*:1])[*:2]; cypY = 3-cyclopentyl-tyrosine, O=C([C@H](Cc1ccc(O[*:3])c(C2CCCC2)c1)N[*:1])[*:2]; Tyr(OBn) = O-benzyl-tyrosine, O=C([C@H](Cc1ccc(OCc2ccccc2)cc1)N[*:1])[*:2]; pent‑4‑enoyl = des-amino allylglycine (Ø = desamino analog), C=CCCC(=O)*; Rx = Nα-allyl-arginine, C=CCN([C@@H](CCCNC(=N)N)C(=O)[*:2])[*:1]; dcypTyr(OBn) = not defined here; pGlu = O=C1CC[C@@H](C(=O)O)N1; Nle = CCCC[C@H](N)C(=O)O; AIH = not defined here; B3 = not defined here

Tests used:
hAPJ receptor [1] = molecular target: T1, hAPJ receptor (Homo sapiens, UniProt P35414); assay: BRET-based Gαi1 activation assay in HEK293 cells; assay type: cell-based; details: for Emax: HEK293, Table V, read-out: Gαi1 Emax
T1 construct: expressed in transfected cells; host or cells: HEK293, transient transfection with PEI
T1 sequence (P35414 1-380): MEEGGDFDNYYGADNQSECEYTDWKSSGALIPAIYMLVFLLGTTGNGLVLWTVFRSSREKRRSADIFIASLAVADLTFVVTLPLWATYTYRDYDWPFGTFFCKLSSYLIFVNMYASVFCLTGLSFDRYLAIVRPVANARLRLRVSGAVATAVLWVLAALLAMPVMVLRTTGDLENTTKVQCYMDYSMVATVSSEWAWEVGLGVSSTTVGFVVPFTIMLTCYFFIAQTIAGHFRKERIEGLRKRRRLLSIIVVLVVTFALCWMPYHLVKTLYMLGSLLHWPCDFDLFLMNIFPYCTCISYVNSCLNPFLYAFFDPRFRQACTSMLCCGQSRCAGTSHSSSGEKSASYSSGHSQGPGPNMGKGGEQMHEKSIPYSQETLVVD
How it was run: (§1)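 HEK293 cells in HBSS stimulated with analogs from 10^−5 to 10^−11 M, 5 min at 37 °C (Gαi1) or 30 min at room temperature (β-arrestin2).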

hAPJ receptor [2] = molecular target: T1, hAPJ receptor; assay: BRET-based β-arrestin2 recruitment assay in HEK293 cells; assay type: cell-based; details: for Emax: HEK293
How it was run: as §1

[3] = tested on: anesthetized male Sprague-Dawley rats; assay: In vivo blood pressure measurement; set-up: species or system rat; details: i.v. bolus, doses 19.6 and 65 nmol/kg
Experimental: The animal experimental protocols were approved by the Animal Care Committee of Université de Sherbrooke and complied with policies and directives of the Canadian Council on Animal Care.
Male Sprague-Dawley rats (8-10 weeks of age) were anesthetized with ketamine/xylazine injection (87/13 mg/kg i.m.) and placed in supine position on a thermostatic pad. Their right carotid artery was catheterized with PE 50 (filled with heparinized saline), connected to a Micro-Med transducer (model TDX-300, Calabasas, USA) and Micro-Med blood pressure analyzer (model BPA-100c). […] This i.v. catheter was flushed with saline (0.2 mL) immediately after each injection.

[4] = Rat plasma stability (half-life in vitro); assay type: in vitro ADME; details: rat plasma; for half-life at […]: male, Sprague-Dawley, rat, plasma
Experimental: Plasma was obtained from male Sprague-Dawley rats by collecting blood in heparin tube and centrifugating at 13,000 rpm to remove blood cells. The isolated plasma was stored at −80° C. and thawed right before the test. In 96-well plate, 6 μL of peptide solution at 1 mM was incubated with 27 μL of plasma at 37° C. in an oven equipped with orbital shaker. Tightly fitted caps were used to seal the wells to avoid water evaporation during incubation. […] A 96-well UPLC plate was put at the bottom to collect the samples. Both plates were centrifuged at 500 g for 10 min at 4° C. to accelerate the filtration. […] The quantity of remaining peptide was plotted into an exponential one-phase decay curve using GraphPad Prism 8 which allowed to calculate peptide half-life. The results were presented as mean±SEM of at least 3 independent experiments, each done in simplicate.
The percentage of remaining analogue was calculated by doing the ratio between AU of compound and AUC of internal standard. Half-lives were extrapolated from curves.

in vivo = details: for AUC: male Sprague-Dawley rats
Experimental: Male Sprague-Dawley rats of 8-10 weeks were used in this study. […] Animals were placed in a containment chamber prior to i.v. injection to facilitate blood sampling. […] Those samples were immediately stored on crushed ice before being centrifuged at 13000 rpm for 5 min at 4° C. to isolate plasma (upper layer). The resultant plasma was transferred to polypropylene tubes, and immediately frozen at −80° C.
A combination of a protein precipitation and a solid phase extraction step were used to extract the peptides. Plasma sample was defrosted on ice. After vortex agitation (60 s), 100 μL sample was withdraw and 300 μL cold acetonitrile was added to precipitate the plasma proteins. The sample was then vortex (60 s) and centrifuged at 4500 rpm at 4° C. during 10 min. The supernatant was then isolated and directly pass through an HLB prime for additional clean up. The filtrate was diluted 10 times in 0.1% formic acid/water and filtered through a 0.22 μm syringe filter before LC/MS/MS analysis.
Samples were analyzed on a Sciex Qtrap 6500+ equipped with a microflow liquid chromatography (Eksigient M3 microflow) and a UPLC HSS-T3 column (1 mm×100 mm, 1.8 μm, equipped with a 0.2 μm fritted pre-filter). The solvent flow rate was set to 50 μL/min, the column temperature was kept at 40° C. and the injection volume was 3 μL. The mobile phase was 0.1% formic acid/water (A) and 0.1% formic acid/acetonitrile (B). The elution gradient starts with 2% of eluent B, increasing to 95% in 8 min, maintaining at 95% for 2 min and then back to initial conditions in 2 min for a total run time of 13 min. […] Analysis used two daughter traces (transitions), among them, the most abundant was for quantification and the second most abundant for confirmation.

Sprague-Dawley rats = assay: Echocardiography (cardiac performance) after s.c. injection; details: for effect on fractional shortening (FS) and cardiac output (CO): s.c. 0.2 μmol/kg, three hours after injection
[5] = molecular target: T2, human APJ (transfected HEK293 cells, Gαi1 BRET assay) (human, UniProt P35414 1-380); assay: cell-based or functional assay
T2 sequence (looked up): T1 sequence (P35414 1-380)

[6] = molecular target: T3, YFP-tagged human APJ receptor (human, UniProt P35414 1-380); assay: competitive radioligand binding, HEK293-hAPJ membranes
T3 construct: whole, on cells; also called hAPJ; APJ WT; not shown: YFP tag
T3 sequence (looked up): T1 sequence (P35414 1-380)

[7] = molecular target: T3, YFP-tagged human APJ receptor; assay: as above; remark: listed apart in the source
[8] = male, Sprague-Dawley, rat, plasma, iv, 3 mg/kg

CCCC[C@H](NC(=O)[C@@H]1CCCN1C(=O)CNC(=O)[C@H](CCCCN)NC(=O)[C@@H]1Cc2cncn2CC=CC[C@H](NC(=O)[C@H](CCCNC(=N)N)NC(=O)[C@@H]2CCC(=O)N2)C(=O)N[C@@H](CCCNC(=N)N)C(=O)N[C@@H](CC(C)C)C(=O)N[C@@H](CO)C(=O)N1)C(=O)N1CCC[C@H]1C(=O)N[C@@H](Cc1ccccc1)C(=O)O [Compound 15, Pyr-R-c[X-R-L-S-Alh]c-K-G-P-Nle-P-F]
Emax (hAPJ receptor [1]): 99%
Emax (hAPJ receptor [2]; Table V, read-out: ß-arr2 Emax): 115%
Emax (hAPJ receptor [2]; read-out: β-arr2 Emax): 115%
ΔMABP (drop in blood pressure) [3]: −40 mmHg

CCCC[C@H](NC(=O)[C@@H]1CCCN1C(=O)CNC(=O)[C@H](CCCCN)NC(=O)[C@@H]1CC=CC[C@H](N)C(=O)N[C@@H](CCCNC(=N)N)C(=O)N[C@@H](CC(C)C)C(=O)N[C@@H](CO)C(=O)N1)C(=O)N1CCC[C@H]1C(=O)N[C@@H](Cc1ccccc1)C(=O)O [Compound 20, NH2-c[X-R-L-S-X]c-K-G-P-Nle-P-F]
Emax (hAPJ receptor [1]): 100%
Emax (hAPJ receptor [2]; Table V, read-out: ß-arr2 Emax): 98%
Emax (hAPJ receptor [2]; read-out: β-arr2 Emax): 98%
ΔMABP (drop in blood pressure) [3]: −27 mmHg

CCCC[C@H](NC(=O)[C@@H]1CCCN1C(=O)CNC(=O)[C@H](CCCCN)NC(=O)[C@@H]1CC=CC[C@H](N)C(=O)N[C@@H](CCCNC(=N)N)C(=O)N[C@@H](CC(C)C)C(=O)N[C@@H](CO)C(=O)N1)C(=O)O [Compound 29, NH2-c[X-R-L-S-X]c-K-G-P-Nle]
Emax (hAPJ receptor [1]): 99%
Emax (hAPJ receptor [2]; Table V, read-out: ß-arr2 Emax): 69%
Emax (hAPJ receptor [2]; read-out: β-arr2 Emax): 69%
times less stable than 20 [4]: 3 times
times less stable than full-length analog 13 [4]: 5 times
ΔMABP (drop in blood pressure) [3]: −13 mmHg

CC(C)C[C@@H]1NC(=O)[C@H](CCCNC(=N)N)NC(=O)[C@@H](N)CC=CC[C@@H](C(=O)N[C@@H](CCCCN)C(=O)NCC(=O)N2CCC[C@H]2C(=O)N[C@H](Cc2cccc3ccccc23)C(=O)O)NC(=O)[C@H](CO)NC1=O [Compound 42, NH2-c[X-R-L-S-X]c-K-G-P-(D-1Nal)]
agonist character on Gαi1 (hAPJ receptor [1]): full agonists
Emax (hAPJ receptor [1]): 103%
agonist character on β-arrestin (hAPJ receptor [2]): partial agonists
Emax (hAPJ receptor [2]; Table V, read-out: ß-arr2 Emax): 70%
Emax (hAPJ receptor [2]; read-out: β-arr2 Emax): 70%
plasma presence at 4 h (in vivo; 3 mg/kg): completely cleared from plasma
AUC (in vivo; i.v. 3 mg/kg): 1.33 ± 0.18 min*(mg/mL)
ΔMABP (drop in blood pressure) [3]: −24 mmHg
effect on fractional shortening (FS) and cardiac output (CO) (Sprague-Dawley rats): significant increase only in FS

CC(C)C[C@@H]1NC(=O)[C@H](CCCNC(=N)N)NC(=O)[C@@H](N)CC=CC[C@@H](C(=O)N[C@@H](CCCCN)C(=O)NCC(=O)N2CCC[C@H]2C(=O)N[C@H](Cc2ccc3ccccc3c2)C(=O)O)NC(=O)[C@H](CO)NC1=O [Compound 43, NH2-c[X-R-L-S-X]c-K-G-P-(D-2Nal)]
agonist character on Gαi1 (hAPJ receptor [1]): full agonists
Emax (hAPJ receptor [1]): 105%
agonist character on β-arrestin (hAPJ receptor [2]): partial agonists
Emax (hAPJ receptor [2]; Table V, read-out: ß-arr2 Emax): 55%
Emax (hAPJ receptor [2]; read-out: β-arr2 Emax): 55%
half-life at […] ([4]; Table I, 37° C., up to 24 h, read-out: Half-life in vitro (converted)): > 24 h
half-life at […] ([4]; Table V, read-out: Half-life t1/2): > 24 h
AUC (in vivo; i.v. 3 mg/kg): 8.80 ± 0.41 min*(mg/mL)
level at 5 min (in vivo; [8]): 36100 ng/mL
level at 4 h (in vivo; [8]): 8600 ng/mL
effect on blood pressure [3]: no effect
effect on fractional shortening (FS) and cardiac output (CO) (Sprague-Dawley rats): significant increase in both FS and CO
CO increase from baseline (Sprague-Dawley rats; s.c. 2 μmol/kg, 6 h): 16%
FS increase (Sprague-Dawley rats; s.c. 2 μmol/kg, 6 h): 17%

CSCC[C@H](NC(=O)[C@@H]1CCCN1C(=O)CNC(=O)[C@H](CCCCN)NC(=O)[C@H](Cc1cnc[nH]1)NC(=O)[C@H](CO)NC(=O)[C@H](CC(C)C)NC(=O)[C@H](CCCNC(=N)N)NC(=O)[C@@H]1CCCN1C(=O)[C@H](CCCNC(=N)N)NC(=O)[C@@H]1CCC(=O)N1)C(=O)N1CCC[C@H]1C(=O)N[C@@H](Cc1ccccc1)C(=O)O [Compound 60, Pyr-R-P-R-L-S-H-K-G-P-M-P-F, reference compound]
completely disappeared after (in vivo; i.v. 3 mg/kg): 5 min
AUC (in vivo; i.v. 3 mg/kg): 0.0002 ± 0.0001 min*(mg/mL)
clearance (in vivo; [8]): > 100 mL/min/kg
effect on fractional shortening (FS) and cardiac output (CO) (Sprague-Dawley rats): no observable effect

B1: Compound 63 (KT02-76) (peptide)
peptide: Ac-KFRRQRPRLEHKKP[Nle]P[cypTyr(OBn)]
modifications: lactam 10-13
EC50 Gαi1 [5]: 5.47 nM
Ki [6]: 0.25 nM

B2: Compound 26 (KT01-120) (peptide)
peptide: [Rx]RLS[AIH]KGP[Nle]PF
modifications: staple 1-5; reading uncertain
Ki [7]: 382 nM

B3: Compound 50 (KT01-181) (peptide)
peptide: RKPXY
modifications: NH2-R-c[K(N-butenyl)-P-X]-Tyr(Obn): K(N-butenyl) 2 and X (allylglycine) 4 close the macrocycle; Tyr(OBn) 5
Ki [7]: 7180 nM

B4: Compound 64 (KT02-78) (peptide)
peptide: Ac-KFRRQRPRLEHKKP[Nle]P[cypY]
modifications: lactam 10-13
EC50 Gαi1 [5]: 19.4 nM
Ki [6]: 0.77 nM

B5: Compound 17 (KT01-106) (peptide)
peptide: [pGlu]RKRLSDKGP[Nle]PF
modifications: lactam 3-7
Ki [7]: 39 nM

B6: Compound 62 (KT02-62) (peptide)
peptide: Ac-KFRRQRPRLEHAKPAPF
modifications: lactam 10-13
EC50 Gαi1 [5]: 33.4 nM

B7: Compound 66 (KT03-02) (peptide)
peptide: Ac-KFRRQRPRLEHKKP[Nle]P[Tyr(OBn)]
modifications: lactam 10-13
EC50 Gαi1 [5]: 21.7 nM
Ki [6]: 1.6 nM

B8: Compound 69 (KT02-20) (peptide)
peptide: Ac-KFRRQRPRLEHKKP[Nle]P[B3]
modifications: lactam 10-13; reading uncertain; also: B3 structure not given here
Ki [6]: 3 nM

B9: Compound 27 (KT01-111) (peptide)
peptide: [pent‑4‑enoyl]RLS[AIH]KGP[Nle]PF
modifications: staple 1-5; not fully specified; printed as Ø-c[X-R-L-S-AIH]-K-G-P-Nle-P-F; reading uncertain
Ki [7]: 380 nM

B10: Compound 65 (KT02-99) (peptide)
peptide: Ac-KFRRQRPRLEHKKP[Nle]P[dcypTyr(OBn)]
modifications: lactam 10-13; reading uncertain; also: printed as Ac-K-F-R-R-Q-R-P-R-L-[E-H-K-K]-P-Nle-P-dcypTyrOBn
EC50 Gαi1 [5]: 73 nM
Ki [6]: 4.16 nM

B11: Compound 46 (KT01-145) (peptide)
peptide: Ac-ENTN[8‑aminooctanoic acid]RPRLKHKGP[Nle]PF
modifications: lactam 1-10
Ki [7]: 32 nM
